Assay [1] has as its target T1, PI3K alfa (Homo sapiens, UniProt P42336).
T1 construct: His tag (C); made in house; host or cells: baculovirus BV1075; Tn5 (Trichoplusia ni) or TiniPro insect cells
The experiment in a line: PI3K alpha kinase assay (Kinase-Glo luminescence). The class given is biochemical. Put shortly:
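Kinase-Glo luminescence read of ATP remaining after PI3Kα (10 nM) phosphorylates 10 μg/mL bovine liver phosphatidylinositol with 1 μM ATP, pH 7.5 TRIS, 3 mM MgCl2, 0.05% CHAPS; 60 min at room temperature. IC50 from 4-parameter logistic fit over 8 concentrations.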
On the technique in general: Kinase-Glo measures the ATP left after a reaction by luminescence.

Assay [2] deals with S6 Ribosomal Protein phosphorylation Ser235/236 in TSC1 null mouse embryo fibroblast (MEF) cells. The experiment in a line: Reverse protein array, S6 Ribosomal Protein phosphorylation in TSC1 null MEF cells. The class given is cell-based. As to conditions: 1 h, TSC1-/- MEFs, 60 minutes, read-out: p-S6. Put shortly: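 Phospho-S6 (Ser235/236) was quantified by reverse protein array of cell lysates with a phospho-specific primary antibody. […]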

Where two headings read alike, the source gives them in different places.

T1 sequence (P42336 with tags, fused parts or gaps limits assumed): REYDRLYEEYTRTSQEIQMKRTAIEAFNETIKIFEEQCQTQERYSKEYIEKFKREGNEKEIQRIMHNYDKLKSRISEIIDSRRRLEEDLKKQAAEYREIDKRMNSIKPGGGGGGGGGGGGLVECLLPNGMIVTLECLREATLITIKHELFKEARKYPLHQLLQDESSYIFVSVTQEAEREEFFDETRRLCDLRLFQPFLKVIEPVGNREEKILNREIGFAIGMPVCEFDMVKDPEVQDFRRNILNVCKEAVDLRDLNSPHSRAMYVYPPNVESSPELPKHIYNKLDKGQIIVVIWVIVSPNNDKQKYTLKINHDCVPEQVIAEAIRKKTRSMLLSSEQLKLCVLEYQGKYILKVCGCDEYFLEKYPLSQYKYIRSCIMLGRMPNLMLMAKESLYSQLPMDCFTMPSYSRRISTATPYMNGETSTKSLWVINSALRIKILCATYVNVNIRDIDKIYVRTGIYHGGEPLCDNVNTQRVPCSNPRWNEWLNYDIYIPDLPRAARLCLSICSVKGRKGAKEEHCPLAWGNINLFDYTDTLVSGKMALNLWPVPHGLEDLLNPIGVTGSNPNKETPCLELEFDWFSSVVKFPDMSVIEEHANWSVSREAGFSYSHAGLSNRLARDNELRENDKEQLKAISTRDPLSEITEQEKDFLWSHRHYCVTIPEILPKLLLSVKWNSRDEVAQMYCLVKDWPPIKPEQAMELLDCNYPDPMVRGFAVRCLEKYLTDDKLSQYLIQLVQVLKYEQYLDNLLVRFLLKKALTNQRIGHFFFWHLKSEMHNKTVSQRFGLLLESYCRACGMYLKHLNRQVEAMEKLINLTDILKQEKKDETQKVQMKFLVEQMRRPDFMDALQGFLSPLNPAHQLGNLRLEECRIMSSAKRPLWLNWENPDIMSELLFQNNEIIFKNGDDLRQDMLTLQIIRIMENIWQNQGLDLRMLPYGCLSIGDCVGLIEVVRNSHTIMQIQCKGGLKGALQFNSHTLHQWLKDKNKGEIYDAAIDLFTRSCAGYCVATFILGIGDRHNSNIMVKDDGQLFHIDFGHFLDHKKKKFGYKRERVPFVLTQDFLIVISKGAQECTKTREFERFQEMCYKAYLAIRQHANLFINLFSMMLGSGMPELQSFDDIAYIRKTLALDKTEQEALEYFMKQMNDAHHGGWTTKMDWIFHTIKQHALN

Turning to `COc1ccc(-c2ccc3ncc4c(c3c2)n(-c2cccnc2OC)c(=O)n4C)cn1` [Example 1.1, 1-(2-Methoxy-pyridin-3-yl)-8-(6-methoxy-pyridin-3-yl)-3-methyl-1,3-dihydro-imidazo[4,5-c]quinolin-2-one], the IC50 in assay [1] (read-out: PI3Kalfa/IC50) worked out at 23 nM; in assay [2] it was 24.5 nM.

For the compound `COc1ncccc1-n1c(=O)n(C)c2cnc3ccc(-c4cnc(N)c(C(F)(F)F)c4)cc3c21` [Example 1.3, 8-(6-Amino-5-trifluoromethyl-pyridin-3-yl)-1-(2-methoxy-pyridin-3-yl)-3-methyl-1,3-dihydro-imidazo[4,5-c]quinolin-2-one], the values for the IC50 in assay [1] (read-out: PI3Kalfa/IC50) and in assay [2] were 10 nM and 1.52 nM, respectively. For `CNc1ccc(-c2ccc3ncc4c(c3c2)n(-c2cccnc2OC)c(=O)n4C)cn1` [Example 1.4, 1-(2-Methoxy-pyridin-3-yl)-3-methyl-8-(6-methylamino-pyridin-3-yl)-1,3-dihydro-imidazo[4,5-c]quinolin-2-one], in that order: 48 nM and 8.24 nM. For `CCOc1ccc(-c2ccc3ncc4c(c3c2)n(-c2cccnc2OC)c(=O)n4C)cn1` [Example 1.5, 8-(6-Ethoxy-pyridin-3-yl)-1-(2-methoxy-pyridin-3-yl)-3-methyl-1,3-dihydro-imidazo[4,5-c]quinolin-2-one], in that order: 40 nM and 48.6 nM. Regarding `COc1ncccc1-n1c(=O)n(C)c2cnc3ccc(-c4cnc5c(ccn5C)c4)cc3c21` [Example 1.7, 1-(2-Methoxy-pyridin-3-yl)-3-methyl-8-(1-methyl-1H-pyrrolo[2,3-b]pyridin-5-yl)-1,3-dihydro-imidazo[4,5-c]quinolin-2-one], the IC50 is 134 nM in assay [1] (read-out: PI3Kalfa/IC50) and 12.1 nM in assay [2]. Turning to `COc1ncccc1-n1c(=O)n(C)c2cnc3ccc(-c4ccc(F)nc4)cc3c21` [Example 1.8, 8-(6-Fluoro-pyridin-3-yl)-1-(2-methoxy-pyridin-3-yl)-3-methyl-1,3-dihydro-imidazo[4,5-c]quinolin-2-one], in assay [1] (read-out: PI3Kalfa/IC50), the IC50 was determined as 58 nM.

As to `COc1ncccc1-n1c(=O)n(C)c2cnc3ccc(-c4cnc(N(C)C)nc4)cc3c21` [Example 1.9, 8-(2-Dimethylamino-pyrimidin-5-yl)-1-(2-methoxy-pyridin-3-yl)-3-methyl-1,3-dihydro-imidazo[4,5-c]quinolin-2-one], the values for the IC50 in assay [1] (read-out: PI3Kalfa/IC50) and in assay [2] were 71 nM and 32.8 nM, respectively. As to `CCOc1ccc(-c2ccc3ncc4c(c3c2)n(-c2cccnc2C)c(=O)n4C)cn1` [Example 2.1, 8-(6-Ethoxy-pyridin-3-yl)-3-methyl-1-(2-methyl-pyridin-3-yl)-1,3-dihydro-imidazo[4,5-c]quinolin-2-one], the IC50 in assay [1] (read-out: PI3Kalfa/IC50) is 56 nM; in assay [2] it was 19 nM.

As to `Cc1cccnc1-n1c(=O)n(C)c2cnc3ccc(-c4cnc5ccccc5c4)cc3c21` [Example 3.8, 3-Methyl-1-(3-methyl-pyridin-2-yl)-8-quinolin-3-yl-1,3-dihydro-imidazo[4,5-c]quinolin-2-one], the IC50 in assay [1] (read-out: PI3Kalfa/IC50) amounted to 70 nM.

Take `COc1ccc(-c2ccc3ncc4c(c3c2)n(-c2ncccc2C)c(=O)n4C)cn1` [Example 3.13, 8-(6-Methoxy-pyridin-3-yl)-3-methyl-1-(3-methyl-pyridin-2-yl)-1,3-dihydro-imidazo[4,5-c]quinolin-2-one]: the IC50 in assay [1] (read-out: PI3Kalfa/IC50) is 90 nM. On the same count and under the same terms, the same measure for `COc1ccc(-c2ccc3ncc4c(c3c2)n(-c2cccnc2)c(=O)n4C)cc1OC` [Example 5.2, 8-(3,4-Dimethoxy-phenyl)-3-methyl-1-pyridin-3-yl-1,3-dihydro-imidazo[4,5-c]quinolin-2-one]: 29 nM; for `COc1ccc(-c2ccc3ncc4c(c3c2)n(-c2cccnc2)c(=O)n4C)cn1` [Example 5.4, 8-(6-Methoxy-pyridin-3-yl)-3-methyl-1-pyridin-3-yl-1,3-dihydro-imidazo[4,5-c]quinolin-2-one]: 19 nM. As for `CNc1ncc(-c2ccc3ncc4c(c3c2)n(-c2ccc(F)nc2C)c(=O)n4C)cc1F` [Example 7.12, 8-(5-Fluoro-6-methylamino-pyridin-3-yl)-1-(6-fluoro-2-methyl-pyridin-3-yl)-3-methyl-1,3-dihydro-imidazo[4,5-c]quinolin-2-one], the IC50 in assay [1] (read-out: EPK_PI3Kalfa/IC50) is 44 nM. Take `CNc1ncc(-c2ccc3ncc4c(c3c2)n(-c2ccc(F)nc2C)c(=O)n4C)cc1C(F)(F)F` [Example 7.13, 1-(6-Fluoro-2-methyl-pyridin-3-yl)-3-methyl-8-(6-methylamino-5-trifluoromethyl-pyridin-3-yl)-1,3-dihydro-imidazo[4,5-c]quinolin-2-one]: in assay [1] (read-out: EPK_PI3Kalfa/IC50), the IC50 was determined as 11 nM. With `CNC(=O)c1cc(-c2ccc3ncc4c(c3c2)n(-c2ccc(F)nc2C)c(=O)n4C)cnc1N` [Example 7.14, 2-Amino-5-[1-(6-fluoro-2-methyl-pyridin-3-yl)-3-methyl-2-oxo-2,3-dihydro-1H-imidazo[4,5-c]quinolin-8-yl]-N-methyl-nicotinamide], the IC50 in assay [1] (read-out: EPK_PI3Kalfa/IC50) was found to be 11 nM.

With `COc1ccc(-n2c(=O)n(C)c3cnc4ccc(-c5cnc(CO)c(OC)c5)cc4c32)c(C)n1` [Example 11.8, 8-(6-Hydroxymethyl-5-methoxy-pyridin-3-yl)-1-(6-methoxy-2-methyl-pyridin-3-yl)-3-methyl-1,3-dihydro-imidazo[4,5-c]quinolin-2-one], in assay [1] (read-out: EPK_PI3Kalfa/IC50), the IC50 was found to be 16 nM. Same read-out and setting: to `COCCN(C)c1ccc(-n2c(=O)n(C)c3cnc4ccc(-c5cnc(CO)c(OC)c5)cc4c32)c(C)n1` [Example 15.9, 8-(6-Hydroxymethyl-5-methoxy-pyridin-3-yl)-1-{6-[(2-methoxy-ethyl)-methyl-amino]-2-methyl-pyridin-3-yl}-3-methyl-1,3-dihydro-imidazo[4,5-c]quinolin-2-one] belongs 23 nM; to `CNc1ncc(-c2ccc3ncc4c(c3c2)n(-c2ccc(N(C)C)nc2C)c(=O)n4C)cn1` [Example 19.1, 1-(6-Dimethylamino-2-methyl-pyridin-3-yl)-3-methyl-8-(2-methylamino-pyrimidin-5-yl)-1,3-dihydro-imidazo[4,5-c]quinolin-2-one], 11 nM.

Regarding `COc1cc(-c2ccc3ncc4c(c3c2)n(-c2ccc(N(C)C)nc2C)c(=O)n4C)cnc1CO` [Example 19.4, 1-(6-Dimethylamino-2-methyl-pyridin-3-yl)-8-(6-hydroxymethyl-5-methoxy-pyridin-3-yl)-3-methyl-1,3-dihydro-imidazo[4,5-c]quinolin-2-one], in assay [1] (read-out: EPK_PI3Kalfa/IC50), the IC50 was 9 nM. Take `Cc1nc(N(C)C)ccc1-n1c(=O)n(C)c2cnc3ccc(-c4cncc(N)c4)cc3c21` [Example 19.5, 8-(5-Amino-pyridin-3-yl)-1-(6-dimethylamino-2-methyl-pyridin-3-yl)-3-methyl-1,3-dihydro-imidazo[4,5-c]quinolin-2-one]: the IC50 in assay [1] (read-out: EPK_PI3Kalfa/IC50) worked out at 65 nM. The same measure, in the same setting: to `COCC(=O)Nc1ccc(-n2c(=O)n(C)c3cnc4ccc(-c5cncc(OC(C)C)c5)cc4c32)c(C)n1` [Example 20.5, N-{5-[8-(5-Isopropoxy-pyridin-3-yl)-3-methyl-2-oxo-2,3-dihydro-imidazo[4,5-c]quinolin-1-yl]-6-methyl-pyridin-2-yl}-2-methoxy-acetamide] belongs 40 nM; to `Cc1nc(C(C)(C)O)ccc1-n1c(=O)n(C)c2cnc3ccc(-c4cncc(OC(C)C)c4)cc3c21` [Example 31.9, 1-[6-(1-Hydroxy-1-methyl-ethyl)-2-methyl-pyridin-3-yl]-8-(5-isopropoxy-pyridin-3-yl)-3-methyl-1,3-dihydro-imidazo[4,5-c]quinolin-2-one], 51 nM.

(Values after patent US20100311714A1, “1H-IMIDAZO[4,5-c]QUINOLINONE COMPOUNDS” (priority 2009, published 2010).)
